Data set [1] is described as follows: Encapsulation efficiency and loading (BCA assay, absorbance spectrophotometer). It is filed as physicochemical. Particulars: for % EE: Table 1, encapsulated in paKG particles; for % loading: Table 1, μg of drug per mg of particles. The method, then: In one embodiment, the metabolite-based polymer or polymeric particle has at least one of high loading and high encapsulation efficiency of the at least one therapeutic agent. Encapsulation efficiency is the percentage of drug that is successfully entrapped into a polymeric particle. In one embodiment, encapsulation efficiency (% EE) is calculated by (total drug added—free non-entrapped drug) divided by the total drug added. Loading capacity is the amount of drug loaded per unit weight of a polymeric particle, indicating the percentage of mass of the polymeric particle that is due to the encapsulated drug. In one embodiment, loading capacity (% LC) can be calculated by the amount of total entrapped drug divided by the total polymeric particle weight. In one embodiment, the polymeric particle has about 50% to about 100% encapsulation efficiency of the at least one therapeutic agent. In one embodiment, the polymeric particle has about 60% to about 100% encapsulation efficiency of the at least one therapeutic agent.
(§1) Another set of polymeric particles were generated using water-oil-water emulsion encapsulating bovine collagen type II (bc2—antigen) in the presence of PFK15 in the particles. Percentage encapsulation efficiency (EE) and percentage loading (μg of drug per mg of particles) for bc2, and PFK15 was determined using BCA assay, and absorbance spectrophotometer (plate reader), respectively (Table 1). Moreover, the release of PFK15 were studied using a plate reader, and it was determined that the polymeric particles released the drug in a sustained manner over a period of 30 days.

For the next data set, the system named is BMDCs. Kind of data set: CD86 / MHCII expression in BMDCs by flow cytometry. The class given is cell-based. The method, then: Next, it was assessed if the changes in BMDC glycolytic rates can affect surface co-stimulatory CD86 expression in BMDCs, using flow cytometry. In this study, pro-inflammatory DCs were defined as the frequency of […].
Since DCs indeed phagocytose paKG-based MPs in vivo, it was hypothesized that the observed reduction in paw swelling in the CIA mice treated with paKG(PFK15+bc2) MPs, may be due to the paKG(PFK15+bc2) MPs modulating DC function (FIG. 8A). Therefore, first effect of paKG(PFK15+bc2) MPs on in vitro cultured BMDCs in the form of altered CD86, MHCII, IL-10, IL-12p70 and TNFα expression in CD11c^+ cells was tested.
A general note: A flow cytometer gives signals particle by particle.

Data set [2] in a line: Release of PFK15 from polymeric particles (plate reader). The settings on record: from paKG polymeric particles. The class given is physicochemical. The method, then: as §1
Data set [3] deals with glycolysis (ECAR) in BMDCs. Kind of data set: Extracellular flux assay (ECAR). The class given is cell-based. The method, then: Reduction in CD86 expression by inhibiting glycolysis in DCs can affect pro-inflammatory DC activation in the presence of lipopolysaccharide (LPS), which is used to mimic inflammation in vitro (FIG. 5A). Therefore, it was tested if PFK15 by itself can block glycolysis in bone marrow-derived DCs (BMDCs) in the presence or absence of LPS. To assess this, the extracellular acidification rate (ECAR) of BMDCs was determined by extracellular flux assays. BMDCs treated with LPS only and no treatment were used as controls.
To test this, extracellular flux assays were used, and pre-activated DCs with LPS and no treatment were used as controls.

The mark [4] stands for this setting: with and without LPS, vs LPS and no treatment.

Turning to `O=C(C=Cc1ccc2ccccc2n1)c1ccncc1` [PFK15, 1-(4-pyridinyl)-3-(2-quinolinyl)-2-propen-1-one], in data set [1], the “% EE” value is given as 68% and the “% loading” value came to 1.7 µg/mg. Also, the “percentage encapsulation efficiency of PFK15 within paKG MPs” value in data set [1] (paKG(PFK15) MPs) is listed as 68±17%. Besides, the “percentage loading efficiency of PFK15” value in data set [1] (per mg of paKG MPs) worked out at 2 ± 1 µg/mg. Moreover, the “frequency of pro-inflammatory BMDC populations” value in the data set with BMDCs (in the absence of LPS, vs no treatment) is on record as “significantly decreased”. Further, the “decrease of frequency of CD86+MHCII+ of CD11c+ BMDCs” value in the data set on BMDCs (in the presence of LPS, vs LPS) is “approximately 8 fold”. In the data set with BMDCs (setting [4]), the “CD86 expression in CD11c+ cells” value is on record as “reduced CD86 expression” and the “anti-inflammatory BMDC populations” value is “did not significantly decrease”. For the same molecule, in data set [2], the “period of sustained release of PFK15” value worked out at 30 days. In addition, the “lowering of glycolysis (ECAR)” value in data set [3] (in the presence of LPS, vs LPS alone) is reported as 60%. Moreover, in data set [3] (without LPS, vs no treatment), the “ECAR in BMDCs” value is “did not significantly reduce ECAR”.

Consider “bc2: bovine collagen type II (bc2) antigen”, for which, in data set [1], the “% EE” value was 60% and the “% loading” value turned out to be 3 µg/mg. For the same molecule, the “percentage encapsulation efficiency of bc2” value in data set [1] (paKG(PFK15+bc2) MPs) was 60 % (wt/wt). Besides, the “percentage loading efficiency of bc2” value in data set [1] (per mg of MPs, paKG(PFK15+bc2) MPs) is 3 µg/mg.

(Values after patent US20220280557A1, “Metabolic Reprogramming of Immune Cells for the Treatment or Prevention of Diseases and Disorders” (Arizona Board of Regents on behalf of Arizona State …, priority 2019, published 2022).)
